Data taken from publication PMC9186351, “Discovery of N-quinazolinone-4-hydroxy-2-quinolone-3-carboxamides as DNA gyrase B-targeted antibacterial agents” (Journal of Enzyme Inhibition and Medicinal Chemistry, 2022).
≈ marks a conversion by molar mass, not a printed value. Where “and” joins values, the source holds several entries; their conditions need not be identical. Identical values can stand only once. Like-named read-outs stand apart in the source and are kept apart here.

Experiments:
S. aureus GyrB = target: T1, S. aureus GyrB (Staphylococcus aureus, UniProt P0A0K8); experiment: S. aureus GyrB (Gyrase ATPase) inhibition assay, ADP-Glo; assay type: biochemical; settings: for IC50: IC50 for GyrB (µM, mean ± SD), S. aureus Gyrase ATPase inhibition, average of duplicates; for inhibition at 10 µM: read-out: GyrB inhibition rate (%) at 10 μM
T1 construct: purchased Inspiralis Ltd., Norwich, UK
T1 sequence (P0A0K8 whole entry): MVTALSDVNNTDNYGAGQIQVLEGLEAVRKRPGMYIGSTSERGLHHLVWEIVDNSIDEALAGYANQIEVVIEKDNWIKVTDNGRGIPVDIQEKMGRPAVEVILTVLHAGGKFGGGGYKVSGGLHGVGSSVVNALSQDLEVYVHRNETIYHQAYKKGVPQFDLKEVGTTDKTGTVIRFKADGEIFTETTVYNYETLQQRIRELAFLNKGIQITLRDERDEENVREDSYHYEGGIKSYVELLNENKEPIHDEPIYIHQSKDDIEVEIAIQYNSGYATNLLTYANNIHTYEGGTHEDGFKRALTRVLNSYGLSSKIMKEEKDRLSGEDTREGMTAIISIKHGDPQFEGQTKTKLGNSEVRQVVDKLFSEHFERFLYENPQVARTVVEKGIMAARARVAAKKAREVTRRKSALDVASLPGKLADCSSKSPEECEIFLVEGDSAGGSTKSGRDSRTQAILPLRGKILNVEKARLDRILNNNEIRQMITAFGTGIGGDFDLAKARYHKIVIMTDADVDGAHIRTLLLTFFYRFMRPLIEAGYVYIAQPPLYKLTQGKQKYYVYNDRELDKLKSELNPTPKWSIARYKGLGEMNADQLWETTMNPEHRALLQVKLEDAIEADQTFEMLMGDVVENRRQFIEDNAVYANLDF
T1 sequence (P20831 whole entry, further chain): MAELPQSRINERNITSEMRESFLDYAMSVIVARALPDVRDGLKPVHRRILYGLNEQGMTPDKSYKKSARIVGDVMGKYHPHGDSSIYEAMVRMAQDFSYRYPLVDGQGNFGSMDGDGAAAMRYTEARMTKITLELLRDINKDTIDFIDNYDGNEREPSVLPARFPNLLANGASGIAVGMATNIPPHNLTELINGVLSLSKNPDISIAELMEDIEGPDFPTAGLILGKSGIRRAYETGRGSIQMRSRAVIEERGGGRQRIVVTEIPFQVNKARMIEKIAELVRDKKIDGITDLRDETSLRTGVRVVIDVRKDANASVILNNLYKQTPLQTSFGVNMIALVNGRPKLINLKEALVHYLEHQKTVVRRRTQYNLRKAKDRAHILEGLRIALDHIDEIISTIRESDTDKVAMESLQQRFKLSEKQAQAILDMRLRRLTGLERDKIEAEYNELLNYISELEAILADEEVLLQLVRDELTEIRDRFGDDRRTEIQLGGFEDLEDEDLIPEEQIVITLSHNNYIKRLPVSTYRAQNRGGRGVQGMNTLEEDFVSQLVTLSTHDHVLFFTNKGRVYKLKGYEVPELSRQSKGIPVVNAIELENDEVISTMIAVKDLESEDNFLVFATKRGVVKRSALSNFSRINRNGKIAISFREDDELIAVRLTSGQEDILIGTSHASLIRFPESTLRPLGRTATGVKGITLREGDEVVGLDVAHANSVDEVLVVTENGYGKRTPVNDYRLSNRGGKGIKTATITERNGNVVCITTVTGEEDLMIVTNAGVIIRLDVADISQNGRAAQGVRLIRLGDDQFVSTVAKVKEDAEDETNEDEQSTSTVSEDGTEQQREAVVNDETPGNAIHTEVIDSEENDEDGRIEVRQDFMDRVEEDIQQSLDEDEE
Procedure: The IC50 values for S. aureus GyrB were determined according to our previously reported protocol.[16] For this assay, the reaction mixture (10 μL) consisted of 5 nM S. aureus Gyrase (Inspiralis Ltd., Norwich, UK), assay buffer [40 mM HEPES-KOH (pH 7.6), 10 mM magnesium acetate, 10 mM dithiothreitol, 50 g/L BSA, and 500 mM potassium glutamate], the test compound (0.01–100 μM), 1% DMSO, 10 nM linear pBR322 DNA, and […]. The target compound was dissolved in DMSO (10 mM). A series of dilutions (0.1–1000 μM) were prepared from the stock solution with the assay buffer and DMSO. The dilutions (1 μL) were respectively added to the PCR tubes along with the buffer (7 μL), the linear pBR322 DNA (0.5 μL), S. aureus Gyrase (0.5 μL), and ATP (1 μL). The PCR tubes were sealed and incubated at 37 °C for 30 min. The ADP-Glo reagent (40 μL) was added to stop the reaction and use up the remaining ATP.
The detection reagent (50 μL) was then added and mixed. After 5 min, the mixture in each PCR tube was put in the well of a 96-well plate and its luminescence was measured by the BioTek Synergy 2 microplate reader. The activity values (%) of S. aureus Gyrase treated by the test compound at different concentrations were determined based on the luminescence. GraphPad Prism version 5 software (GraphPad Software Inc., La Jolla, CA) was used to calculate the IC50 values.

[1] = test system: methicillin-sensitive S. aureus (MSSA); experiment: MIC by broth microdilution, MSSA isolates; assay type: cell-based; settings: Staphylococcus aureus
Procedure: All of the bacterial strains used in this study were obtained from the Collection Centre of Pathogen Microorganism of Chinese Academy of Medical Sciences (CAMS-CCPM-A) in China. All of the isolates were stored at −80 °C and streaked on tryptic soy agar (TSA) plates to obtain overnight cultures. The MICs of the test compounds were determined by the broth microdilution method in accordance with the Clinical and Laboratory Standards Institute (CLSI) guidelines.[20] Cation-adjusted Mueller-Hinton broth (CAMHB) was used as the growth medium for MIC assays. Briefly, 100 μL of serially diluted compounds (starting concentrations were 64 μg/mL) in CAMH broth were added to the wells of 96-well microtiter plates. Then, 10 µL of 5 × 10^6 CFU/mL bacterial culture was added to each well. […] The MIC was defined as the lowest concentration of a compound that inhibited visual growth of the bacteria. Vancomycin was set as the positive control for this assay.

[2] = ATCC 29213 / BAA-1708 / BAA-976 / MSSA, ATCC 29213, 15, 18-3, BAA976, BAA1708, span over isolates, read-out: MIC over the five MSSA isolates
[3] = ATCC 29213 / MSSA, MSSA ATCC 29213, read-out: MIC
[4] = BAA-976 / MSSA, MSSA BAA976, read-out: MIC
[5] = BAA-1708 / MSSA, MSSA BAA1708, read-out: MIC

Row | SMILES | IC50 (S. aureus GyrB) | melting point | inhibition at 10 µM (S. aureus GyrB) | further results
1 | CCCCCc1nc2ccc(OC)cc2c(=O)n1NC(=O)c1c(O)c2ccccc2n(CC)c1=O [f4, N-(6-methoxy-4-oxo-2-pentylquinazolin-3(4H)-yl)-1-ethyl-4-hydroxy-2-oxo-1,2-dihydroquinoline-3-carboxamide] | 0.31 ± 0.07 µM | 98.7 to 99.9 °C |  | MIC [1, 2]: ≥ 32 µg/mL; MIC [1, 3]: > 64 µg/mL; MIC [1, 4]: 32 µg/mL (≈ 67.2 µM); MIC [1, 5]: > 64 µg/mL; MIC ([1]; MSSA, MSSA 15, read-out: MIC): 64 µg/mL (≈ 134 µM); MIC ([1]; MSSA, MSSA 18-3, read-out: MIC): 64 µg/mL (≈ 134 µM)
2 | CCCCCc1nc2ccc(Cl)cc2c(=O)n1NC(=O)c1c(O)c2ccccc2n(CC)c1=O [f2, N-(6-chloro-4-oxo-2-pentylquinazolin-3(4H)-yl)-1-ethyl-4-hydroxy-2-oxo-1,2-dihydroquinoline-3-carboxamide] | 1.58 ± 0.06 µM | 141.5 to 143.1 °C |  | 
3 | CCc1nc2ccccc2c(=O)n1NC(=O)c1c(O)c2ccccc2n(CC)c1=O [f14, N-(2-ethyl-4-oxoquinazolin-3(4H)-yl)-1-ethyl-4-hydroxy-2-oxo-1,2-dihydroquinoline-3-carboxamide] | 0.28 ± 0.04 µM |  |  | MIC [1, 2]: ≥ 32 µg/mL; MIC [1, 3]: > 64 µg/mL; MIC [1, 4]: 32 µg/mL (≈ 79.1 µM); MIC [1, 5]: 64 µg/mL (≈ 158 µM); MIC ([1]; MSSA, MSSA 15, read-out: MIC): 64 µg/mL (≈ 158 µM); MIC ([1]; MSSA, MSSA 18-3, read-out: MIC): > 64 µg/mL
4 | CCCCc1nc2ccccc2c(=O)n1NC(=O)c1c(O)c2ccccc2n(CC)c1=O [f16, N-(2-butyl-4-oxoquinazolin-3(4H)-yl)-1-ethyl-4-hydroxy-2-oxo-1,2-dihydroquinoline-3-carboxamide] | 2.34 ± 0.34 µM | 139.8 to 140.5 °C |  | 
5 | CCCCCC(=O)NNC(=O)c1c(O)c2ccccc2n(CCC)c1=O [AG-690/11232780] |  |  | 3% | 
6 | CCCCCc1nc2cc(OC)ccc2c(=O)n1NC(=O)c1c(O)c2ccccc2n(CC)c1=O [f8, N-(7-methoxy-4-oxo-2-pentylquinazolin-3(4H)-yl)-1-ethyl-4-hydroxy-2-oxo-1,2-dihydroquinoline-3-carboxamide] | 7.9 ± 0.1 µM | 146.8 to 147.6 °C |  | 
7 | CCn1c(=O)c(C(=O)Nn2c(C)nc3ccccc3c2=O)c(O)c2ccccc21 [f13, N-(2-methyl-4-oxoquinazolin-3(4H)-yl)-1-ethyl-4-hydroxy-2-oxo-1,2-dihydroquinoline-3-carboxamide] | 1.64 ± 0.23 µM |  |  | 
8 | CCCCCc1nc2cc(Cl)ccc2c(=O)n1NC(=O)c1c(O)c2ccccc2n(CC)c1=O [f6, N-(7-chloro-4-oxo-2-pentylquinazolin-3(4H)-yl)-1-ethyl-4-hydroxy-2-oxo-1,2-dihydroquinoline-3-carboxamide] | 0.83 ± 0.01 µM | 128.4 to 130.2 °C |  | 
9 | CCCCCCn1c(=O)c(C(=O)Nc2nc(C)cs2)c(O)c2ccccc21 [AG-690/36956124] |  |  | 10% | 
10 | CCCCCNC(=O)c1c(O)c2ccccc2n(C)c1=O [AG-690/11232717] |  |  | 13% | 
11 | CCCCCCn1c(=O)c(C(=O)Nc2ccc(Cl)cn2)c(O)c2ccccc21 [AG-690/11557825] |  |  | 6% | 
12 | CCCCCc1nc2c(C)cccc2c(=O)n1NC(=O)c1c(O)c2ccccc2n(CC)c1=O [f11, N-(8-methyl-4-oxo-2-pentylquinazolin-3(4H)-yl)-1-ethyl-4-hydroxy-2-oxo-1,2-dihydroquinoline-3-carboxamide] | 0.77 ± 0.02 µM | 142.7 to 144.3 °C |  | 
13 | CCCc1nc2ccccc2c(=O)n1NC(=O)c1c(O)c2ccccc2n(CC)c1=O [f15, N-(4-oxo-2-propylquinazolin-3(4H)-yl)-1-ethyl-4-hydroxy-2-oxo-1,2-dihydroquinoline-3-carboxamide] | 11.9 ± 2.3 µM | 158.6 to 160.7 °C |  | 
14 | CCn1c(=O)c(C(=O)NNC(=O)c2ccccc2Br)c(O)c2ccccc21 [AG-690/11765298] |  |  | 45% | 
15 | O=C(Nc1ccccc1-c1ccccc1)c1c(O)c2cccc3c2n(c1=O)CCC3 [AE-641/00629040] |  |  | 11% | 
16 | CCCCCc1nc2ccc(C)cc2c(=O)n1NC(=O)c1c(O)c2ccccc2n(CC)c1=O [f3, N-(6-methyl-4-oxo-2-pentylquinazolin-3(4H)-yl)-1-ethyl-4-hydroxy-2-oxo-1,2-dihydroquinoline-3-carboxamide] | 0.83 ± 0.11 µM | 160.6 to 162.3 °C |  | 
17 | CCCCCc1nc2c(Cl)cccc2c(=O)n1NC(=O)c1c(O)c2ccccc2n(CC)c1=O [f10, N-(8-chloro-4-oxo-2-pentylquinazolin-3(4H)-yl)-1-ethyl-4-hydroxy-2-oxo-1,2-dihydroquinoline-3-carboxamide] | 9.7 ± 2.1 µM | 158.6 to 160.4 °C |  | 
18 | CCCn1c(=O)c(C(=O)NNC(=O)Cc2ccccc2)c(O)c2ccccc21 [AG- 690/36956135] |  |  | 6% | 
19 | Cc1noc(NC(=O)c2c(O)c3cccc4c3n(c2=O)CCC4)c1C [AE-641/00628057] |  |  | 7% | 
20 | CCCCCc1nc2cc(OC)c(OC)cc2c(=O)n1NC(=O)c1c(O)c2ccccc2n(CC)c1=O [f9, N-(6,7-dimethoxy-4-oxo-2-pentylquinazolin-3(4H)-yl)-1-ethyl-4-hydroxy-2-oxo-1,2-dihydroquinoline-3-carboxamide] | 1.06 ± 0.13 µM | 172.4 to 174.1 °C |  | 
21 | CCCCCc1nc2ccc(C(F)(F)F)cc2c(=O)n1NC(=O)c1c(O)c2ccccc2n(CC)c1=O [f5, N-(4-oxo-2-pentyl-6-(trifluoromethyl)quinazolin-3(4H)-yl)-1-ethyl-4-hydroxy-2-oxo-1,2-dihydroquinoline-3-carboxamide] | 0.81 ± 0.17 µM | 128.3 to 130.2 °C |  | 
22 | CCCCCCn1c(=O)c(C(=O)Nc2ccccc2Br)c(O)c2ccccc21 [AG-690/11232728] |  |  | 12% | 
23 | CCCCCc1nc2c(OC)cccc2c(=O)n1NC(=O)c1c(O)c2ccccc2n(CC)c1=O [f12, N-(8-methoxy-4-oxo-2-pentylquinazolin-3(4H)-yl)-1-ethyl-4-hydroxy-2-oxo-1,2-dihydroquinoline-3-carboxamide] | 0.878 µM and 0.88 µM | 178.3 to 180.1 °C |  | 
24 | CCn1c(=O)c(C(=O)NNS(=O)(=O)c2ccc(Br)cc2)c(O)c2ccccc21 [AG-690/11765340] |  |  | 10% | 
25 | CCCCCc1nc2cc(C)ccc2c(=O)n1NC(=O)c1c(O)c2ccccc2n(CC)c1=O [f7, N-(7-methyl-4-oxo-2-pentylquinazolin-3(4H)-yl)-1-ethyl-4-hydroxy-2-oxo-1,2-dihydroquinoline-3-carboxamide] | 24.4 ± 4.5 µM | 167.2 to 168.4 °C |  | 
26 | C=CCn1c(=O)c(C(=O)NNC(=O)Cc2ccncc2)c(O)c2ccccc21 [AG-690/36469055] |  |  | 15% | 
